The values that follow come from PMC11752117 (Journal of Traditional and Complementary Medicine, 2024).

What all share (assay): microbe, parasite or virus in culture
Format in all cases: cell-based

One experiment has as its system SARS-CoV-2 Alpha variant. As to conditions: Severe acute respiratory syndrome coronavirus 2, A549, 48 h, read-out: IC50, inhibition of SARS-CoV-2 infection, Alpha, A549-ACE2-TMPRSS2, 1.56 to 50 μM for 2 days, n = 2.
In experiment [1] the test system is SARS-CoV-2 Omicron BA.2 variant. As to conditions: Severe acute respiratory syndrome coronavirus 2, A549, 48 h, read-out: IC50, inhibition of SARS-CoV-2 infection.
Another experiment relates to SARS-CoV-2 Delta variant. To be noted: Severe acute respiratory syndrome coronavirus 2, A549, 48 h, read-out: IC50, inhibition of SARS-CoV-2 infection.

A word on the IC50: it is the concentration needed to halve the response being measured. For the molecule `C=C1CC[C@@H]2[C@](C)(CO)[C@H](O)CC[C@@]2(C)[C@@H]1C/C=C1/C(=O)OC[C@H]1O` [Andrographolide, andrographolide], the figures for the IC50 (with SARS-CoV-2 Alpha variant; in experiment [1]; with SARS-CoV-2 Delta variant) were 7.08 µM, 4.62 µM and 7.35 µM, respectively.
